The results in this text go back to ChEMBL document CHEMBL1141884 (Bioorg Med Chem Lett, 2005).

Some results are limits rather than exact numbers.

The target of data set [1] is T1, Acetylcholinesterase (Homo sapiens, UniProt P22303). As to the kind of experiment: Inhibitory concentration against Acetylcholinesterase activity.
The target of the next data set is Cholinesterase (Homo sapiens, UniProt P06276).
Data set [2] addresses T1, Acetylcholinesterase. Description: Binding affinity for Acetylcholinesterase.
Substrate in data set [3]: COc1ccc(-c2cc3c(c(=O)o2)C[C@@]2(O)[C@@]4(C)CCC(=O)OC(C)(C)[C@@]4(O)CC[C@@]2(C)O3)cc1
As to the kind of experiment: Michaelis-Menten constant for affinity against Acetylcholinesterase.

Sequence of Cholinesterase (P06276 whole entry): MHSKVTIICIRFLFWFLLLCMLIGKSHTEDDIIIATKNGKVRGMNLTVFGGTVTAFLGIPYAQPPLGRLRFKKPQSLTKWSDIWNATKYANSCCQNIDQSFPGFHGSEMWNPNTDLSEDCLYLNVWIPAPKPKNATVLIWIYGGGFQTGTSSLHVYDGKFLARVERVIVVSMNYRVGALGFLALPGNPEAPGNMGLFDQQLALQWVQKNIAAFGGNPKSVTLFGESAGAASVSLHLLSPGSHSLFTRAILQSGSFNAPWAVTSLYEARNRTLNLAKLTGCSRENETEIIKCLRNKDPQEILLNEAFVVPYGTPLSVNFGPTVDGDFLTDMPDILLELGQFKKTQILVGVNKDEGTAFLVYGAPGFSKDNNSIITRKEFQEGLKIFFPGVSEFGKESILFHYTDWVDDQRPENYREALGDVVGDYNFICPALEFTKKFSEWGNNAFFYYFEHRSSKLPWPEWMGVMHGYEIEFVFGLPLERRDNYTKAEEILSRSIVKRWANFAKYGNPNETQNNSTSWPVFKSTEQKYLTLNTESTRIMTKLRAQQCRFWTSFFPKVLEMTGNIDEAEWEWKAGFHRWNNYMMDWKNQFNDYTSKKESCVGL

For the molecule `COc1ccc(-c2cc3c(c(=O)o2)C[C@@]2(O)[C@@]4(C)C=CC(=O)C(C)(C)[C@@]4(O)CC[C@@]2(C)O3)cc1`, the IC50 against Acetylcholinesterase [1] was 90 nM; against Cholinesterase, greater than 200000 nM.
Turning to `COc1ccc(-c2cc3c(c(=O)o2)C[C@@]2(O)[C@@]4(C)C(=O)[C@@]5(OC)C(=O)O[C@]4(CC[C@@]2(C)O3)C5(C)C)cc1` [TERREULACTONE A], the half-maximal inhibitory concentration (IC50) was 230 nM at Acetylcholinesterase [1] and greater than 200000 nM on Cholinesterase.
`COc1ccc(-c2cc3c(c(=O)o2)C[C@@]2(O)[C@@]4(C)CCC(=O)OC(C)(C)[C@@]4(O)CC[C@@]2(C)O3)cc1`: on Acetylcholinesterase [2], the Ki was found to be 2300 nM. Further, on Cholinesterase, the IC50 is greater than 500000 nM.
As for `COC1=CC(=O)[C@]2(C)[C@]3(O)Cc4c(cc(-c5cc(OC)c(OC)c(OC)c5)oc4=O)O[C@]3(C)CC[C@]2(O)C1(C)C`, the IC50 was 420 nM against Acetylcholinesterase [1] and greater than 200000 nM against Cholinesterase.
As for `COc1ccc(-c2cc3c(c(=O)o2)C[C@@]2(O)[C@@]4(C)CCC(=O)C(C)(C)[C@@]4(O)CC[C@@]2(C)O3)cc1`, the values for the concentration for half-maximal inhibition (IC50) at Acetylcholinesterase [1] and on Cholinesterase were 60 nM and greater than 200000 nM, respectively.

B1: Acetylcholinesterase (Homo sapiens), P22303 (protein)
chain: MRPPQCLLHTPSLASPLLLLLLWLLGGGVGAEGREDAELLVTVRGGRLRGIRLKTPGGPVSAFLGIPFAEPPMGPRRFLPPEPKQPWSGVVDATTFQSVCYQYVDTLYPGFEGTEMWNPNRELSEDCLYLNVWTPYPRPTSPTPVLVWIYGGGFYSGASSLDVYDGRFLVQAERTVLVSMNYRVGAFGFLALPGSREAPGNVGLLDQRLALQWVQENVAAFGGDPTSVTLFGESAGAASVGMHLLSPPSRGLFHRAVLQSGAPNGPWATVGMGEARRRATQLAHLVGCPPGGTGGNDTELVACLRTRPAQVLVNHEWHVLPQESVFRFSFVPVVDGDFLSDTPEALINAGDFHGLQVLVGVVKDEGSYFLVYGAPGFSKDNESLISRAEFLAGVRVGVPQVSDLAAEAVVLHYTDWLHPEDPARLREALSDVVGDHNVVCPVAQLAGRLAAQGARVYAYVFEHRASTLSWPLWMGVPHGYEIEFIFGIPLDPSRNYTAEEKIFAQRLMRYWANFARTGDPNEPRDPKAPQWPPYTAGAQQYVSLDLRPLEVRRGLRAQACAFWNRFLPKLLSATDTLDEAERQWKAEFHRWSSYMVHWKNQFDHYSKQDRCSDL
Consider B1, for which the Michaelis constant (Km) in data set [3] is 20 µM.

Usually IC50 stands for the concentration that gives 50% inhibition. The low end stands for greater potency, the high end for weaker potency. In general, Ki refers to the dissociation constant of the complex between target and ligand, obtained from inhibition or displacement. A lower Ki goes with a stronger hold on the target. What is called Km is the substrate concentration at which the rate is half of its maximum.
